Measurements published in patent publication US20240131001A1, “PHARMACEUTICAL APPLICATION OF FUSED RING PHENOLIC COMPOUNDS” (RISEN (SUZHOU) PHARMA TECH CO. LTD., priority 2020, published 2024).
Read-outs that look alike come from different tables or passages of the source.

Columns and labels:
PPK = PPK inhibitor screening assay (Table 1, PPK isoform not given); format: biochemical, Pseudomonas aeruginosa; conditions: PPK isoform not stated; for IC50: read-out: IC50 Values for PPK Inhibition
Source text: (§1) In order to evaluate the inhibitory effect of the compounds on PPKs, the PPK1, PPK2A, PPK2B and PPK2C were used respectively to test the above compounds using a kit described in an article (Liang Peng et al. & Ning Sun (2020) Discovery and antibacterial study of potential PPK1 inhibitors against uropathogenic E. coli, Journal of Enzyme Inhibition and Medicinal Chemistry, 35:1, 1224-1232).

PPK1 = PPK1 (Pseudomonas aeruginosa, UniProt P0DP44); assay: PPK inhibitor screening assay, PPK1; format: biochemical
Source text: as §1

PPK2A = PPK2A (Pseudomonas aeruginosa, UniProt Q9I6Z1); assay: PPK inhibitor screening assay, PPK2A; format: biochemical
Source text: as §1

PPK2B = PPK2B (Pseudomonas aeruginosa, UniProt Q9I154); assay: PPK inhibitor screening assay, PPK2B; format: biochemical
Source text: as §1

PPK2C = PPK2C (Pseudomonas aeruginosa, UniProt Q9HYF1); assay: PPK inhibitor screening assay, PPK2C; format: biochemical
Source text: as §1

Pseudomonas aeruginosa [1] = assay: Biofilm testing; format: cell-based; conditions: 100 μM compound
Description: FIG. 2: Effect of Compound 4 on Biofilm Formation in Different Pseudomonas Aeruginosa Strains. A: absorbance. The experimental concentration of compound 4 was 100 μM, and “−” or “+” indicates the absence or presence of compound 4; WT: wild-type strain; Δ ppk 1 is the PPK1 knocked out strain; Δ ppk2A, Δppk2B and Δppk2C are the strains with PPK2A, PPK2B, PPK2C knocked out; Δppk1, Δppk2AΔppk2B, Δppk2C are the strains with PPK1, PPK2A, PPK2B and PPK2C knocked out.
Pseudomonas aeruginosa can form biofilm in culture medium. Four groups of LB liquid media were set respectively, among them, group A was inoculated with wild-type Pseudomonas aeruginosa (WT); group B was inoculated with PPK1 knocked out Pseudomonas aeruginosa (A ppkl); group C was inoculated with PPK2A, PPK2B and PPK2C knocked out Pseudomonas aeruginosa (Δ ppk 2A, Δ ppk 2B, Δ ppk 2C); group D was inoculated with PPK1 and PPK2A, PPK2B and PPK2C knocked out Pseudomonas aeruginosa (Δ ppk1, Δ ppk 2Δ A ppk 2B, Δ ppk 2C). After the four groups were infected with Pseudomonas aeruginosa, each group was further divided into two groups, with one group added with DMSO (−) as the control, the other group added with 100 μm compound 4 (+). […] And this biofilm formed in the culture medium of groups A, B, C and D was analyzed using 570 nm visible light.

Pseudomonas aeruginosa [2] = assay: Nematode survival test; format: in vivo; conditions: Caenorhabditis elegans infected with wild-type Pseudomonas aeruginosa, six days
Source text: FIG. 3: Effect of Compound 4 on the Survival Rate of Nematodes Infected with Pseudomonas Aeruginosa.
Caenorhabditis elegans were divided into five groups A, B, C, D, E, and then subjected to modeling respectively. Caenorhabditis elegans in group A and B were infected with wild-type (WT) Pseudomonas aeruginosa. Group A served as the DMSO control group and group B as compound 4 treatment group. Caenorhabditis elegans in groups C and D were infected with Pseudomonas aeruginosa which was knocked out of all PPK (ΔpolyP, Δppk1Δppk2ΔAppk2BΔ ppk 2C), where group C was DMSO control group and group D served as compound 4 treatment group; and group E was infected with Escherichia coli (0P50E. Coli). After modeling, Caenorhabditis elegans in groups A and C were continuously treated with DMSO, and those in groups B, D and E were continuously treated with compound 4. The environment and conditions were consistent across the five groups. Six days later, the survival rate of nematodes in five groups was calculated.

[3] = tested on: human embryonic kidney cells (HEK239T); assay: HEK cytotoxicity test (Trypan blue staining cell viability assay); format: cell-based; conditions: for relative viability rate: 100 μM, relative to DMSO; for cytotoxicity: up to 100 μM
Description: FIG. 4: Toxicity Assay of Compound 4 and Compound B on Human Embryonic Kidney Cells (HEK Cells): Relative Viability in the Presence of DMSO (Control), Compound B (100 μM), and Compound 4 (100 μM).
The cytotoxicity of the compounds was assessed in cultured human embryonic kidney cells (HEK239T) using the Trypan blue staining cell viability assay. The blank solvent DMSO, compound B, and compound 4 were tested, respectively.

Sequence of PPK1 (P0DP44 whole entry): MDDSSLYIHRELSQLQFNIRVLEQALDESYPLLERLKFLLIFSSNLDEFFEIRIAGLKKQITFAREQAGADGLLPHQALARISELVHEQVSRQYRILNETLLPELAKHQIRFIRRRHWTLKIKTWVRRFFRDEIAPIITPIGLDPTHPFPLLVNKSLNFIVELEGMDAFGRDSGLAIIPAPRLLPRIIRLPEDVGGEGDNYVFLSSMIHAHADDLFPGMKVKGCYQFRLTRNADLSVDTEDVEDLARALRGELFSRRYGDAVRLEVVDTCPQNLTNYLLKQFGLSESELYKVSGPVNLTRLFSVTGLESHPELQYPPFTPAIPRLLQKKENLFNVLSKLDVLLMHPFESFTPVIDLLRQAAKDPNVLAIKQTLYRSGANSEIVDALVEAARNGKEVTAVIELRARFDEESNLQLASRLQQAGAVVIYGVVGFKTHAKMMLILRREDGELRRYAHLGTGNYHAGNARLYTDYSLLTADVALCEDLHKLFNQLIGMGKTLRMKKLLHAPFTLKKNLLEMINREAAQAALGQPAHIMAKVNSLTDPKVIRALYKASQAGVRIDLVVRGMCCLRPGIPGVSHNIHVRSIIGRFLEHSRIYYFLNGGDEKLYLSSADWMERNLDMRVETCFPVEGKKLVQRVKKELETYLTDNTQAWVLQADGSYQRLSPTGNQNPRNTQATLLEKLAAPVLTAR
Sequence of PPK2B (Q9I154 whole entry): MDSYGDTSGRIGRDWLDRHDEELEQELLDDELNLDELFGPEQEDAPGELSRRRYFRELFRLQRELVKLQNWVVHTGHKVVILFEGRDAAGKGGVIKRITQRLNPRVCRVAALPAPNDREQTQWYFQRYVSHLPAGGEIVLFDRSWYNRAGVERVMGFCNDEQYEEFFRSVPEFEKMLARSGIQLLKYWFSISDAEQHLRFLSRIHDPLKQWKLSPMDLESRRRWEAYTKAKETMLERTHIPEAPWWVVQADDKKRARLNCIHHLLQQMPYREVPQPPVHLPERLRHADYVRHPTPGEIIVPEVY
Sequence of PPK2A (Q9I6Z1 whole entry): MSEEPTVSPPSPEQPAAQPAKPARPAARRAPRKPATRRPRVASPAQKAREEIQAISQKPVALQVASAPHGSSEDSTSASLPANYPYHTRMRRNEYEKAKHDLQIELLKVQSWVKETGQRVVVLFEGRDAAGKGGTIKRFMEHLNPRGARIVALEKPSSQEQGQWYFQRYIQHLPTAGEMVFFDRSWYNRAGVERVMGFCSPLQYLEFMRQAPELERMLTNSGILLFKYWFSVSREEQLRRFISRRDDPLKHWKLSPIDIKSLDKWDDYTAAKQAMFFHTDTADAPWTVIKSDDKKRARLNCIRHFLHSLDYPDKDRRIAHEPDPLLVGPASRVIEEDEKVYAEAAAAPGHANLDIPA
Sequence of PPK2C (Q9HYF1 whole entry): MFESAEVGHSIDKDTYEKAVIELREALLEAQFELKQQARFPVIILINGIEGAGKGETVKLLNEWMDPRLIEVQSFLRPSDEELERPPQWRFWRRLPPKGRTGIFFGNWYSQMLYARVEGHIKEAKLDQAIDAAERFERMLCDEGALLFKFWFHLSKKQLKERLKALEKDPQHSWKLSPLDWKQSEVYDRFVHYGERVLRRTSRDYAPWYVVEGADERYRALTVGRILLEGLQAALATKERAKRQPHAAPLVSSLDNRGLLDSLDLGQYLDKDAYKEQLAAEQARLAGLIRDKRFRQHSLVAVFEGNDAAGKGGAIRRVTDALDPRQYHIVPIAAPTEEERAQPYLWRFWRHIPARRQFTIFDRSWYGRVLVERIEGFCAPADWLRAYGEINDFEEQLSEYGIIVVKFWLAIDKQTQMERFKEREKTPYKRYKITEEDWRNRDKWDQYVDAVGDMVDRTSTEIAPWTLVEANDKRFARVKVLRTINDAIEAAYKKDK

## O=c1c(O)c(-c2ccc(O)c(O)c2)oc2cc(O)cc(O)c12 [Compound G, reference compound]
PPK
  IC50: 177 µM

## O=S1(=O)OC2(c3ccccc31)c1cc(Br)c(O)c(O)c1Oc1c2cc(Br)c(O)c1O [Compound 6]
PPK
  IC50: 7.59 µM

## O=c1oc2cc(O)ccc2c2ccc(O)c(O)c12 [C, reference compound]
PPK
  IC50: > 100 µM

## O=c1c(O)c(-c2ccc(O)cc2O)oc2cc(O)cc(O)c12 [Compound A, reference compound]
PPK
  IC50 Values for PPK Inhibition: Inactive

## Cc1c(C2(c3cc(Br)c(O)c(Br)c3C)OS(=O)(=O)c3ccccc32)cc(Br)c(O)c1Br [Compound F, reference compound]
PPK
  IC50 Values for PPK Inhibition: Inactive

## O=c1c(O)c(-c2cc(O)c(O)c(O)c2)oc2cc(O)cc(O)c12 [Compound 7]
PPK
  IC50: 39 µM

## O=C1OC2(c3ccccc31)c1ccc(O)c(O)c1Oc1c2ccc(O)c1O [Compound 4]
PPK
  IC50: 17 µM
PPK1; read-out: IC50 PPK1
  IC50: 17 µM
PPK2A
  IC50: 16 µM
PPK2B
  IC50: 20 µM
PPK2C
  IC50: 165 µM
Pseudomonas aeruginosa [1]; PPK knocked out strains
  inhibitory effect on PPK1 and PPK2 seen in biofilm test: not only inhibited PPK1, but also exhibited a good inhibitory effect on PPK2
Pseudomonas aeruginosa [1]; wild-type Pseudomonas aeruginosa, 37° C., 24 h
  biofilm formation (570 nm absorbance): could reduce the formation of biofilm
Pseudomonas aeruginosa [2]
  mortality of nematodes: significantly reduced
[3]
  relative viability rate: ~100%
  cytotoxicity: no cytotoxicity

## O=C(O)c1ccc2c(c1)C1(OC2=O)c2ccc(O)cc2Oc2cc(O)ccc21 [E, reference compound]
PPK
  IC50: > 200 µM

## O=c1cc(-c2cc(O)c(O)c(O)c2Br)oc2c(O)c(O)ccc12 [Compound 1]
PPK
  IC50: 6 µM

## O=c1oc2c(O)c(O)cc3c(=O)oc4c(O)c(O)cc1c4c23 [Compound 3]
PPK
  IC50: 9 µM
PPK1; read-out: IC50 PPK1
  IC50: 20 µM
PPK2A
  IC50: 50 µM
PPK2B
  IC50: 48 µM

## O=S1(=O)OC2(c3ccccc31)c1ccc(O)c(O)c1Oc1c2ccc(O)c1O [Compound 5]
PPK
  IC50: 26.3 µM
PPK1; read-out: IC50 PPK1
  IC50: 26 µM
PPK2A
  IC50: 24 µM
PPK2B
  IC50: 31 µM
PPK2C
  IC50: 273 µM

## O=c1oc2c(O)c(O)c(O)c3c(=O)oc4c(O)c(O)cc1c4c23 [Compound 2]
PPK
  IC50: 8 µM
PPK1; read-out: IC50 PPK1
  IC50: 20 µM
PPK2B
  IC50: 59 µM

## O=C1OC2(c3ccc(O)cc3Oc3cc(O)ccc32)c2ccccc21 [D, reference compound]
PPK
  IC50: > 200 µM

## O=c1cc(-c2cc(O)c(O)c(O)c2-c2ccsc2)oc2c(O)c(O)ccc12 [Compound 10]
PPK
  IC50: 36 µM

## C[C@@H]1O[C@@H](OC[C@H]2O[C@@H](Oc3c(-c4ccc(O)c(O)c4)oc4cc(O)cc(O)c4c3=O)[C@H](O)[C@@H](O)[C@@H]2O)[C@H](O)[C@H](O)[C@H]1O [Compound H, reference compound]
PPK
  IC50 Values for PPK Inhibition: Inactive

## O=c1oc2c(O)c(O)ccc2c2ccc(O)c(O)c12 [Compound B, reference compound]
PPK
  IC50: 150 µM
PPK1
  IC50: 120 µM
[3]
  relative viability rate: approximately 35%
  cytotoxicity: caused a large number of cell death
